# Data reported in patent US20150209316A1, “AGENT FOR ENHANCING IMMUNITY CONTAINING GLUTATHIONE” (KYOWA HAKKO BIO CO., LTD., priority 2012, published 2015).
# What was measured:
# lymphocyte [1] = details: by administering 2-ME; cited from earlier work
# [2] = tested on: murine-derived splenic lymphocytes; details: in vitro; cited from earlier work
# human K562 cells = details: after 3 months
# Procedure: The design included the recruitment of healthy subjects (28-79 yr. of age, mean=46.6 years) randomized into 3 groups (GSH at 1000 mg/day, GSH at 250 mg/day, and placebo). […] Blood samples were obtained from all subjects at baseline. […] Capsules were formulated, and subjects began supplementation according to the following schedule as follows: • Group A, GSH: 500 mg/capsule and cellulose: 15 mg/capsule, (2 pills daily); • Group B, GSH: 125 mg/capsule and cellulose: 360 mg/capsule, (2 pills daily); • Group C (placebo), cellulose: 470 mg/capsule, (2 pills daily).
# Eligible participants were randomly assigned to either placebo (Group C) or high (Group A) or low (Group B) dose glutathione groups. […]
# (§1) Blood samples were collected from an antecubital vein into 3 tubes containing sodium heparin as an anticoagulant and immediately placed on ice. […] Cell number was assessed after addition of 40 μl trypan blue to 10 μl of cell suspension using a hemocytometer. […]
# NK Cell Cytotoxicity—NK cell cytotoxicity was assessed using human K562 cells, labeled with sodium ^51chromate as target cell. […] Lymphocyte samples from each of the five time points were thawed, washed 3 times, counted to determine cell viability and added in triplicate to the wells at an effector:target cell ratio of 10:1. After incubation for 4 hr. at 37° C., cells were collected and supernatant analyzed for radioactivity by gamma counting. […]
# [3] = tested on: murine-derived splenic lymphocytes; details: in vitro; cited from earlier work; remark: listed apart in the source
# lymphocytes = details: after 3 months, both GSH groups (250 and 1000 mg/day oral), dose dependent
# Procedure: The design included the recruitment of healthy subjects (28-79 yr. of age, mean=46.6 years) randomized into 3 groups (GSH at 1000 mg/day, GSH at 250 mg/day, and placebo). […] Blood samples were obtained from all subjects at baseline. Subjects began supplementation according to the following schedule: Glutathione capsules were provided by the sponsor, Kyowa Hakko USA. Capsules were formulated, and subjects began supplementation according to the following schedule as follows: • Group A, GSH: 500 mg/capsule and cellulose: 15 mg/capsule, (2 pills daily); • Group B, GSH: 125 mg/capsule and cellulose: 360 mg/capsule, (2 pills daily); • Group C (placebo), cellulose: 470 mg/capsule, (2 pills daily). […]
# as §1
# Lymphocyte Proliferation—Lymphocyte samples from each of the 5 time points (0, 1, 3, 6, and 7 months) were thawed, washed 3 times and counted to determine cell viability. […] Cell proliferation was monitored by 3H-thymidine incorporation. Intracellular radioactivity was measured by liquid scintillation counting and results were expressed as cpm.
# NK cell = details: oral administration to a human; cited from earlier work
# [4] = oral administration to a human; cited from earlier work
# lymphocyte [5] = details: oral administration to a human; cited from earlier work
structure (smiles),measurement,setting,value
OCCS [2-melcaptoethanol],lymphocyte proliferation,lymphocyte [1],lymphocyte proliferation action
"N[C@@H](CCC(=O)N[C@@H](CS)C(=O)NCC(=O)O)C(=O)O [GSH, γ-L-Glu-L-Cys-Gly]",Con A induced lymphocyte proliferation activity,[2],increased in a GSH concentration dependent fashion
same,mean % lysis values (NK cell cytotoxicity),"human K562 cells; both GSH groups (250 and 1000 mg/day oral), dose dependent, effector:target 10:1",Increases in mean % lysis values were observed
same,significance of increase in % lysis versus baseline,"human K562 cells; high GSH dose arm 1000 mg/day, Ppaired=0.01",only significant in the high GSH dose arm
same,NK cell cytotoxic activity,[3],increased in a GSH concentration dependent fashion
same,glutathione concentration in lymphocytes compared to placebo group (Group C),"Group A, 1000 mg/day oral, 1 and 6 months, chi-square test",significant difference (p<0.05)
same,maximum increase of lymphocyte total glutathione,"high dose GSH group (1000 mg/day oral), after 6 months",about 30%
same,time course of lymphocyte glutathione levels,"high dose group (1.0 g/day oral), 1, 3, 6 months",levels progressively increasing from 1 to 3 to 6 months of administration
same,"mean proliferative capacity of lymphocytes (3H-thymidine, cpm)",lymphocytes,Increases in mean proliferative capacity were observed
CC(=O)N[C@@H](CS)C(=O)O [N-acetylcysteine],NK cell cytotoxic activity,NK cell,increased
same,glutathione concentration in immune cells,[4],increased
same,PHA stimulated lymphocyte proliferation,lymphocyte [5],increased
